Reference: patent US10023593B2, “ALK kinase inhibitor, and preparation method and uses thereof” (BEIJING PEARL BIOTECHNOLOGY LIMITED LIABILITY COMPANY, priority 2014, dated 2018)

Columns and labels:
[1] = test system: Karpas-299 cell line; experiment: CellTiter-Glo cell proliferation inhibition on Karpas-299 cell line; assay type: cell-based; settings: Homo sapiens, 96 h, Karpas-299 cells, 5000 cells/well, 4 days drug treatment
Outline: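 Karpas-299 cells (5000/well, RPMI-1640 + 10% FBS) pre-incubated 2 h at 37 °C, then treated with compound (0.5% DMSO final) for 4 days. Viability read by CellTiter-Glo luminescence; inhibition calculated against DMSO control, IC50 fitted.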

[2] = molecular target: T1, Wild Type ALK kinase (Homo sapiens, UniProt Q9UM73); experiment: HTRF KinEASE-TK assay, inhibitory activity on wild type ALK kinase; assay type: biochemical; settings: wild type ALK 1 ng/μl, substrate 1 μM, 30° C. 35 minutes, read-out: Inhibition on ALK kinases (wildtype), IC50
T1 construct: purchased Sino-US Crown Bioscience, Inc. batch number ALK 20110607
T1 sequence (Q9UM73 19-1620): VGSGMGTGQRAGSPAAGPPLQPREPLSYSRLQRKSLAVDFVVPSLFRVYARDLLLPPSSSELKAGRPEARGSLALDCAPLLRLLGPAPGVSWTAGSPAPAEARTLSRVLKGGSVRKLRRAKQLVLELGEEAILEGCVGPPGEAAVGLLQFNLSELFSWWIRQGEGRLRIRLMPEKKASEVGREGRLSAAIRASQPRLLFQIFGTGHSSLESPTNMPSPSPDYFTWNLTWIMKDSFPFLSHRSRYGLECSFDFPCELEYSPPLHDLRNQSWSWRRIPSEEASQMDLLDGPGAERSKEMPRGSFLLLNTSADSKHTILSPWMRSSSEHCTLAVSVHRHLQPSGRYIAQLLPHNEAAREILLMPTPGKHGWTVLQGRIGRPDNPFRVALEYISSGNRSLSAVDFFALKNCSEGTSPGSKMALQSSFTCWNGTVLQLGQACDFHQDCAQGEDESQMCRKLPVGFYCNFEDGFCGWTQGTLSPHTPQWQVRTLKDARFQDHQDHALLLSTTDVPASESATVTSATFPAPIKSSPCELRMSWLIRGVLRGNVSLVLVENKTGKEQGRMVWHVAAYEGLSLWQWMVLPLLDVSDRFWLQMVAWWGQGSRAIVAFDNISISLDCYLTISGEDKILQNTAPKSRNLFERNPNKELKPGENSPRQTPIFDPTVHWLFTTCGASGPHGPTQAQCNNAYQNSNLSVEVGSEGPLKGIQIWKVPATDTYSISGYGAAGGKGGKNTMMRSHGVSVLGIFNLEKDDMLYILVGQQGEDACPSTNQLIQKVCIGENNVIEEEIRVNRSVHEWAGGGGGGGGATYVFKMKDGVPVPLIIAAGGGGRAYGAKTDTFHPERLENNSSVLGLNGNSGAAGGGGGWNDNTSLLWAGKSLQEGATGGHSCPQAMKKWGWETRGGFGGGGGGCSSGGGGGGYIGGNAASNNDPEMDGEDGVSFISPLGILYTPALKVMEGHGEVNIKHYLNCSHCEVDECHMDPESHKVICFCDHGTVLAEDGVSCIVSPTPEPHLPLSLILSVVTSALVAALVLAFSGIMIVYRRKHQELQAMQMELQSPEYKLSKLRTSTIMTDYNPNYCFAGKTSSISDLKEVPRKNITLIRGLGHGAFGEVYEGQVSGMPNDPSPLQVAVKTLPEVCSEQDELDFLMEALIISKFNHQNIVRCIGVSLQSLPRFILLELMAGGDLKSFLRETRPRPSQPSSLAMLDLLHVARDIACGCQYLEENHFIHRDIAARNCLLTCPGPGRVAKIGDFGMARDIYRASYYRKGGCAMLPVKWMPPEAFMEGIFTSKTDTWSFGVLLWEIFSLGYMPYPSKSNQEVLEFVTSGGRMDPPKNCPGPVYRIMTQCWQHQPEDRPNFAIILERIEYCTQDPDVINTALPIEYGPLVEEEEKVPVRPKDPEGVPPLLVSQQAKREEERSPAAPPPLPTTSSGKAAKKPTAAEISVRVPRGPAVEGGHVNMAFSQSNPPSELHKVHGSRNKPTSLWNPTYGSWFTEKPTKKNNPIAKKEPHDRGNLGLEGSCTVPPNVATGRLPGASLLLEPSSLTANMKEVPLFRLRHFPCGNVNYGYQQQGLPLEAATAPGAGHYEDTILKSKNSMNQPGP
Outline: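 ALK kinase at 1 ng/μl and substrate at 1 μM were reacted with compound (1% DMSO) in buffer with 5 mM MgCl2 and 1 mM DTT for 35 min at 30 °C. HTRF detection used the 665/615 ratio, normalised to no-compound wells and to 10.4 μM LDK-378 wells. IC50 came from a concentration-response fit.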

SMILES	IC50 [1] [µM]	IC50 [2] [µM]
Cc1cc(Nc2ncc(Cl)c(Nc3cn(C)nc3S(=O)(=O)C(C)C)n2)c(OC2CC2)cc1C1CCN(C(=O)C2CC2)CC1 [Final product 162, 1-cyclopropylformyl-4-(4-(5-chloro-4-(3-(isopropylsulfonyl)-1-methyl-1H-pyrazol-4-amino)pyrimidin-2-amine)-5-cyclopropoxy-2-methylphenyl)piperidine]	0.024	0.019
Cc1cc(Nc2ncc(Cl)c(Nc3cn(C)nc3S(=O)(=O)C(C)C)n2)c(OC2CC2)cc1C1CCN(C(=O)C(C)(C)C)CC1 [Final product 164, 1-pivaloyl-4-(4-(5-chloro-4-(3-(isopropylsulfonyl)-1-methyl-1H-pyrazol-4-amino)pyrimidin-2-amine)-5-cyclopropoxy-2-methylphenyl)piperidine]	0.015	0.056
Cc1cc(Nc2ncc(Cl)c(Nc3cn(C)nc3S(=O)(=O)C(C)C)n2)c(OC2CC2)cc1C1CCN(C(=O)CN(C)C)CC1 [Final product 165, 1-(2-dimethylamino)acetyl-4-(4-(5-chloro-4-(3-(isopropylsulfonyl)-1-methyl-1H-pyrazol-4-amino)pyrimidin-2-amino)-5-cyclopropoxy-2-methylphenyl)piperidine]	0.003	0.002
Cc1cc(Nc2ncc(Cl)c(Nc3cn(C)nc3S(=O)(=O)C(C)C)n2)c(OC2CC2)cc1C1CCN(C(=O)CC#N)CC1 [Final product 166, 1-cyano acetyl-4-(4-(5-chloro-4-(3-(isopropylsulfonyl)-1-methyl-1H-pyrazol-4-amino)pyrimidin-2-amine)-5-cyclopropoxy-2-methylphenyl)piperidine]	0.008	0.003
Cc1cc(Nc2ncc(Cl)c(Nc3cn(C)nc3S(=O)(=O)C(C)C)n2)c(OC2CC2)cc1C1CCN(S(C)(=O)=O)CC1 [Final product 167, 5-chloro-N^2-(2-cyclopropoxy-5-methyl-4-(1-methanesulfonyl-piperidin-4-yl)-phenyl)-N^4-(3-(isopropylsulfonyl)-1-methyl-1H-pyrazol-4-yl)pyrimidin-2,4-diamine]	0.018	0.009
Cc1cc(Nc2ncc(Cl)c(Nc3cn(C)nc3S(=O)(=O)C(C)C)n2)c(OC(C)C)cc1C1CN(S(C)(=O)=O)C1 [Final product 168]	0.068	0.014
Cc1cc(Nc2ncc(Cl)c(Nc3cn(C)nc3S(=O)(=O)C(C)C)n2)c(OC2CC2)cc1C1CN(S(C)(=O)=O)C1 [Final product 170]	0.086	0.04
Cc1cc(Nc2ncc(Cl)c(Nc3cn(C)nc3S(=O)(=O)CC(C)C)n2)c(OC2CC2)cc1C1CN(S(C)(=O)=O)C1 [Final product 171]	0.069	0.086
CC(C)S(=O)(=O)c1nn(C)cc1Nc1nc(Nc2ccc(C3CCN(S(C)(=O)=O)C3)cc2OC2CC2)ncc1Cl (stereo not shown) [Final product 172]	0.017	0.008
CC(C)S(=O)(=O)c1nn(C2CC2)cc1Nc1nc(Nc2ccc(C3CCN(S(C)(=O)=O)CC3)cc2OC2CC2)ncc1Cl [Final product 173]	0.019	0.037
CCNC(=O)N1CCC(c2cc(OC3CC3)c(Nc3ncc(Cl)c(Nc4cn(C)nc4S(=O)(=O)C(C)C)n3)cc2C)CC1 [Final product 174, 4-(4-(5-chloro-4-(3-(isopropylsulfonyl)-1-methyl-1H-pyrazol-4-amine)pyrimidin-2-amine)-5-cyclopropoxy-2-methyl-phenyl)-N-ethyl-piperidin-1-carboxamide]	0.02	0.004
CCN(CC)[C@H]1CC[C@H](c2cc(OC3CC3)c(Nc3ncc(Cl)c(Nc4cn(C)nc4S(=O)(=O)CC(C)C)n3)cc2C)CC1 [Final product 178]	0.018	0.018
Cc1cc(Nc2ncc(Cl)c(Nc3cn(C)nc3S(=O)(=O)CC(C)C)n2)c(OC2CC2)cc1[C@H]1CC[C@H](NC2CC2)CC1 [Final product 180]	0.026	0.035
Cc1cc(Nc2ncc(Cl)c(Nc3cn(C)nc3S(=O)(=O)CC(C)C)n2)c(OC2CC2)cc1[C@H]1CC[C@H](NC(C)C)CC1 [Final product 182]	0.015	0.014
Cc1cc(Nc2ncc(Cl)c(Nc3cn(C)nc3S(=O)(=O)C(C)C)n2)c(OC(C)C)cc1[C@H]1CC[C@H](NC(C)C)CC1 [Final product 188]	0.01	0.005
Cc1cc(Nc2ncc(Cl)c(Nc3cn(C)nc3S(=O)(=O)C(C)C)n2)c(OC2CC2)cc1[C@H]1CC[C@@H](N(C)C)CC1 [Final product 189]	0.006	0.004
Cc1cc(Nc2ncc(Cl)c(Nc3cn(C)nc3S(=O)(=O)C(C)C)n2)c(OC2CC2)cc1[C@H]1CC[C@H](NC2CC2)CC1 [Final product 196]	0.009	0.009
Cc1cc(Nc2ncc(Cl)c(Nc3cn(C)nc3S(=O)(=O)C(C)C)n2)c(OC2CC2)cc1[C@H]1CC[C@H](NC(C)C)CC1 [Final product 198]	0.005	0.005
CC(=O)N1CCN([C@H]2CC[C@H](c3cc(OC4CC4)c(Nc4ncc(Cl)c(Nc5cn(C)nc5S(=O)(=O)C(C)C)n4)cc3C)CC2)CC1 [Final product 204]	0.007	0.007
Cc1cc(Nc2ncc(Cl)c(Nc3cn(C)nc3S(=O)(=O)C(C)C)n2)c(OC2CC2)cc1C1=C(Cl)CN(C)CC1 [Final product 208, 5-chloro-N^2-[4-(5-chloro-1-methyl-1,2,3,6-tetrahydro-pyridin-4-yl)-2-cyclopropoxy-5-methyl-phenyl]-N^4-[1-methyl-3-(isopropylsulfonyl)-1H-pyrazol-4-yl]-pyrimidin-2,4-diamine]	0.035	0.006
